Consider 37 compounds from patent publication US20220087987A1, “A METHOD FOR TREATING SWI/SNF COMPLEX-DEFICIENT CANCERS COMPRISING GLUTATHIONE (GSH) METABOLIC PATHWAY INHIBITOR” (National Cancer Center, priority 2018, published 2022).

One series concerns ARID1A-KO HCT116 cells. The experiment in a line: Drug library screen, cell viability (CellTiter-Glo). The format is cell-based, human. The arrangement: key to Cell viability, KO: % viability relative to DMSO solvent-treated cells. The protocol: (§1) ARID1A-WT and ARID1A-KO HCT116 cancer cells were used for screening assays. […] Cell viability was assessed after 5 days using the CellTiter-Glo Luminescent Cell Viability Assay (Promega). Luminescence was measured using an Envision Multi-label plate reader (PerkinElmer). The luminescence reading was used to determine the cell viability relative to that of cells treated with solvent (DMSO). Candidate compounds were considered if viability of ARID1A-KO cells was less than […] was more than 80%.
In general terms: Cellular ATP, detected with luciferase, serves as a proxy for viable cell number.

Another series has as its system ARID1A-WT HCT116 cells. Described as above. Details: key to Cell viability, WT: % viability relative to DMSO solvent-treated cells. The format is cell-based, human. As for the experimental part: as §1
[1] abbreviates: HCT116 ARID1A-KO, 10 μM for 5 days, relative to cells treated with solvent (DMSO).
[2] abbreviates: HCT116 ARID1A-WT, 10 μM for 5 days, relative to cells treated with solvent (DMSO).

Where two headings read alike, the source gives them in different places. Numbered stars: 1 amine (or outer) side, 2 acyl side, 3 side chain; on linkers, the order of the positions; unused ones are H or OH. Bridge positions count the residues as written; N and C are the ends. Square brackets hold non-standard residues; d marks the D form. Peptide text beside a SMILES is read from it. I, II: the chains in the order shown. Actinocin(9to1) = Cc1c2oc3c(C)ccc(C(=O)[*:1])c3nc-2c(C(=O)[*:2])c(N)c1=O; NMeV = CN[C@H](C(=O)O)C(C)C; Sar = CNCC(=O)O

Regarding `O=C1Cc2c([nH]c3ccc(Br)cc23)-c2ncccc2N1` [1-Azakenpaullone], the “Cell viability, KO” value with ARID1A-KO HCT116 cells (setting [1]) was determined as 114.0704. Besides, the “Cell viability, WT” value in the series on ARID1A-WT HCT116 cells (setting [2]) was determined as 95.89.
The like results for `Nc1ncnc2nc(-c3ccc(N4CCOCC4)nc3)cc(-c3cccc(Br)c3)c12` [ABT-702] were, in that order, 111.7532 and 94.11.
On to `CCCC[C@@H](C)[C@@H](OC(=O)C[C@@H](CC(=O)O)C(=O)O)[C@H](C[C@@H](C)C[C@H](O)CCCC[C@@H](O)C[C@H](O)[C@H](C)N)OC(=O)C[C@@H](CC(=O)O)C(=O)O` [Fumonisin B1], for which the “Cell viability, KO” value in the series on ARID1A-KO HCT116 cells (setting [1]) is recorded as 83.33. In addition, the “Cell viability, WT” value in the series on ARID1A-WT HCT116 cells (setting [2]) stood at 87.23.
The like results for `N#C/C(=C\c1ccc2oc(=O)[nH]c2c1)C(=O)c1ccc(O)c(O)c1` [AGL 2263] were, in that order, 172.9001 and 148.6873.
On to Akt Inhibitor IV, for which the “Cell viability, KO” value in the series on ARID1A-KO HCT116 cells (setting [1]) is on record as 5.523. Moreover, the “Cell viability, WT” value in the series with ARID1A-WT HCT116 cells (setting [2]) is 3.276.
For the compound `O=C(Cc1ccccc1)Nc1c2c(nc3ccccc13)N(Cc1ccccc1)CC2` [PGP-4008], the “Cell viability, KO” value in the series with ARID1A-KO HCT116 cells (setting [1]) was determined as 117.1066. The “Cell viability, WT” value with ARID1A-WT HCT116 cells (setting [2]) turned out to be 106.0362.
The corresponding values for `CCN(CC)CCCCNc1ncc2cc(-c3cc(OC)cc(OC)c3)c(NC(=O)NC(C)(C)C)nc2n1` [PD173074] are 7.568 and 8.446.
The like results for `Cc1nc(N)sc1-c1ccnc(Nc2cccc([N+](=O)[O-])c2)n1` [Cdk 2/9 inhibitor] were, in that order, 14.26 and 6.309.
The like results for `Cc1ccc2nc(NC(=O)CSc3nc4c(c(=O)n3-c3ccccc3)SCC4)sc2c1` [IWP-2] were, in that order, 90.8 and 78.56.
Turning to `CCCCCC#CCC#CCC#CCC#CCCCC(=O)O` [ETYA], the “Cell viability, KO” value in the series on ARID1A-KO HCT116 cells (setting [1]) is 110.2846. The “Cell viability, WT” value in the series on ARID1A-WT HCT116 cells (setting [2]) turned out to be 95.86.
On to `O=c1onc2cnc3ccccc3n12` [ODQ], for which, in the series with ARID1A-KO HCT116 cells (setting [1]), the “Cell viability, KO” value stood at 84.9. In addition, in the series on ARID1A-WT HCT116 cells (setting [2]), the “Cell viability, WT” value is listed as 84.47.
With `CCCCCCCCCCCCCCOc1ccc(C(=O)O)o1` [TOFA], the “Cell viability, KO” value in the series with ARID1A-KO HCT116 cells (setting [1]) is on record as 74.56. The “Cell viability, WT” value in the series on ARID1A-WT HCT116 cells (setting [2]) was 75.72.
The corresponding values for `Cc1cccc(-c2nn3c(c2-c2ccnc4ccc(C(N)=O)cc24)CCC3)n1` [LY2157299] are 113.5072 and 91.31.
The like results for `C[C@H]1CCC/C=C/[C@@H]2C[C@H](O)C[C@H]2[C@H](O)/C=C/C(=O)O1` [brefeldin A] were, in that order, 4.578 and 1.838.
The corresponding values for `CCCNC(=O)[C@H]1O[C@@H]1C(=O)N[C@H](C(=O)N1CCC[C@H]1C(=O)O)[C@@H](C)CC` [CA-074] are 115.0436 and 107.6022.
Turning to `C=C1C(=O)OC(CCCCCCCC)C1C(=O)O` (centres unmarked) [C75], the “Cell viability, KO” value in the series on ARID1A-KO HCT116 cells (setting [1]) turned out to be 93.63. Moreover, in the series with ARID1A-WT HCT116 cells (setting [2]), the “Cell viability, WT” value is given as 103.4877.
Turning to MEK inhibitor I, the “Cell viability, KO” value with ARID1A-KO HCT116 cells (setting [1]) is recorded as 117.4589. Besides, the “Cell viability, WT” value in the series on ARID1A-WT HCT116 cells (setting [2]) came to 77.6.
The corresponding values for `NC(=O)C1CCCc2c1[nH]c1ccc(Cl)cc21` (centres unmarked) [SIRT1 inhibitor III] are 98.94 and 92.15.
The like results for `C=C1[C@@H](C)[C@H]2[C@H](Cc3ccccc3)NC(=O)[C@]23[C@H](OC(C)=O)/C=C/[C@@](C)(O)C(=O)[C@@H](C)C/C=C/[C@H]3[C@@H]1O` [Cytochalasin D] were, in that order, 59.86 and 63.
In the case of `NC(=O)c1ccc(-c2nc(-c3ccc4c(c3)OCCO4)c(-c3ccccn3)[nH]2)cc1` [D4476], the “Cell viability, KO” value with ARID1A-KO HCT116 cells is 124.271. Besides, the “Cell viability, WT” value with ARID1A-WT HCT116 cells was found to be 93.4.
`O=C(Nc1cccc2cccnc12)c1ccc(N2C(=O)[C@@H]3[C@H](C2=O)[C@@H]2C=C[C@H]3C2)cc1` [IWR-1-endo]: the “Cell viability, KO” value with ARID1A-KO HCT116 cells (setting [1]) was 75.98. In addition, the “Cell viability, WT” value with ARID1A-WT HCT116 cells (setting [2]) came to 76.34.
The corresponding values for `Brc1c(Br)c(Br)c2n[nH]nc2c1Br` [TBB] are 147.5332 and 187.1148.
The corresponding values for `CCN1/C(=C/C(C)=O)Sc2ccc(OC)cc21` [TG003] are 138.6968 and 115.1966.
`CN(C)CC(=O)Nc1ccc2[nH]c(=O)c3ccccc3c2c1` [PJ-34]: the “Cell viability, KO” value in the series on ARID1A-KO HCT116 cells was found to be 15.94. For the same compound, in the series with ARID1A-WT HCT116 cells, the “Cell viability, WT” value worked out at 18.28.
On to `COc1ccc(C2=N[C@@H](c3ccc(Cl)cc3)[C@@H](c3ccc(Cl)cc3)N2C(=O)N2CCNC(=O)C2)c(OC(C)C)c1` [Nutlin-3], for which, in the series with ARID1A-KO HCT116 cells (setting [1]), the “Cell viability, KO” value is 25.82. Further, the “Cell viability, WT” value in the series with ARID1A-WT HCT116 cells (setting [2]) is recorded as 23.89.
Consider `CCCCN1C(=O)C2Cc3c([nH]c4ccccc34)C(c3cccc(O)c3)N2C1=O` (centres unmarked) [HR22C16], for which the “Cell viability, KO” value with ARID1A-KO HCT116 cells (setting [1]) worked out at 17.39. In the series with ARID1A-WT HCT116 cells (setting [2]), the “Cell viability, WT” value is listed as 12.52.
The like results for `Cc1c2oc3c(C)ccc(C(=O)N[C@@H]4C(=O)N[C@H](C(C)C)C(=O)N5CCC[C@H]5C(=O)N(C)CC(=O)N(C)[C@@H](C(C)C)C(=O)O[C@@H]4C)c3nc-2c(C(=O)N[C@@H]2C(=O)N[C@H](C(C)C)C(=O)N3CCC[C@H]3C(=O)N(C)CC(=O)N(C)[C@@H](C(C)C)C(=O)O[C@@H]2C)c(N)c1=O` [Actinomycin D] (I: T[dV]P[Sar][NMeV] / II: T[dV]P[Sar][NMeV]; ester I:1-I:C, II:1-II:C; linker I:N-II:N via Actinocin(9to1)) were, in that order, 6.531 and 6.951.
Consider `CC(/C=C/C(=O)NO)=C\[C@@H](C)C(=O)c1ccc(N(C)C)cc1` [Trichostatin A], for which the “Cell viability, KO” value in the series on ARID1A-KO HCT116 cells (setting [1]) turned out to be 5. Further, the “Cell viability, WT” value in the series with ARID1A-WT HCT116 cells (setting [2]) came to 6.352.
The like results for `CCOC(=O)c1c(C)[nH]c(/C=C2\C(=O)Nc3ccccc32)c1C` [VEGF recptor 2 kinase inhibitor I] were, in that order, 109.4563 and 106.2493.
The like results for `CCN(CC)CCNC(=O)c1c(C)[nH]c(/C=C2\C(=O)Nc3ccc(Cl)cc32)c1C` [SU11652] were, in that order, 8.987 and 4.735.
Regarding `C=CCc1cccc(/C=N/NC(=O)CN2CCN(Cc3ccccc3)CC2)c1O` [PAC-1], the “Cell viability, KO” value in the series on ARID1A-KO HCT116 cells (setting [1]) is 9.44. For the same compound, in the series on ARID1A-WT HCT116 cells (setting [2]), the “Cell viability, WT” value is 6.045.
For the compound `COc1ccc(OC)c2c(=S)c3ccccc3[nH]c12` [NSC625987], the “Cell viability, KO” value in the series on ARID1A-KO HCT116 cells (setting [1]) is 161.7582. In addition, the “Cell viability, WT” value in the series with ARID1A-WT HCT116 cells (setting [2]) is recorded as 136.0173.
As for `CC(C)[C@H](CO)Nc1nc(Nc2cccc(Cl)c2)c2ncn(C(C)C)c2n1` [Purvalanol A], the “Cell viability, KO” value in the series with ARID1A-KO HCT116 cells (setting [1]) amounted to 33.47. For the same compound, the “Cell viability, WT” value in the series on ARID1A-WT HCT116 cells (setting [2]) is reported as 51.32.
The corresponding values for `Cc1cccc(-c2nn(C(=S)Nc3ccccc3)cc2-c2ccnc3ccccc23)n1` [A83-01] are 104.8454 and 77.92.
For the compound `COc1ccc(C[C@H]2NC[C@H](O)[C@H]2OC(C)=O)cc1` [anisomycin], the “Cell viability, KO” value in the series with ARID1A-KO HCT116 cells (setting [1]) was found to be 7.327.
Take `COC(=O)[C@H](CC(C)C)NC(=O)c1ccc(NC[C@@H](N)CS)cc1-c1ccccc1` [GGTI-286]: the “Cell viability, KO” value in the series on ARID1A-KO HCT116 cells (setting [1]) came to 123.5827.
The same measure, in the same setting: to `O=C(Nc1ccc2c(O)cc(S(=O)(=O)O)cc2c1)Nc1ccc2c(O)cc(S(=O)(=O)O)cc2c1` [AMI-1] belongs 85.52.
